Assay results reported in PMC8300937, “New azolyl-derivatives as multitargeting agents against breast cancer and fungal infections: synthesis, biological evaluation and docking study” (Journal of Enzyme Inhibition and Medicinal Chemistry, 2021).
Values after ≈ are worked out from the molar mass of the structure shown. Like-named read-outs stand apart in the source and are kept apart here.

Columns and labels:
[1] = target: T1, aromatase (CYP19A) (Homo sapiens, UniProt P11511); assay: Aromatase inhibition, fluorimetric assay kit (Aromatase-CYP19A Inhibitor Screening kit, BioVision); assay type: biochemical; conditions: read-out: Aromatase % inhibition
T1 construct: purchased BioVision
T1 sequence (P11511 1-503): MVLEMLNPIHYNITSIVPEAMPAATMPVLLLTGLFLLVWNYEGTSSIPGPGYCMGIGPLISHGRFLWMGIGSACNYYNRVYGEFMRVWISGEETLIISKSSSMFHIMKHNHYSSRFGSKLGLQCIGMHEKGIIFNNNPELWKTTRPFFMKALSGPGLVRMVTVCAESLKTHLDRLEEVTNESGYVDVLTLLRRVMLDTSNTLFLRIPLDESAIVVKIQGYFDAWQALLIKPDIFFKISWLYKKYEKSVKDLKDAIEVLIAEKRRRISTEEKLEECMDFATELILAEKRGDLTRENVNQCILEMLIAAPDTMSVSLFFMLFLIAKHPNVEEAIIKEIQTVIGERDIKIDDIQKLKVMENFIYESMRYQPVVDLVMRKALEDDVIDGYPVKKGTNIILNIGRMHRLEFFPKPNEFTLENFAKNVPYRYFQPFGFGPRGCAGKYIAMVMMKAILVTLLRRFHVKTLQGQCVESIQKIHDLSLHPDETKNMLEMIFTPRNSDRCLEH
Method: The aromatase inhibitory activity of the novel compounds was determined using a commercial fluorimetric kit (Aromatase CYP19A Inhibitor Screening kit, BioVision, Milpitas, CA, USA). The assay utilises a fluorogenic aromatase substrate, that is converted into a highly fluorescent metabolite detected in the visible range (Ex/Em = 488/527 nm), ensuring a high signal-to-background ratio with little interference by autofluorescence.

[2] = target: T2, Recombinant human iNOS (Homo sapiens, UniProt P35228); assay: iNOS inhibition, L-citrulline assay with fluorimetric (HPLC) detection; assay type: biochemical; conditions: read-out: iNOS % inhibition
T2 construct: purchased Enzo Life Sciences, Inc
Method: The injection volume was 5 μL.
Recombinant human iNOS was purchased from Enzo Life Sciences, Inc. (New York, USA).

[3] = Chemical stability in aqueous media at 37 °C (HPLC); assay type: physicochemical
Method: Compounds 2 and 5 contain an ester linkage, therefore their chemical stability was evaluated. Phosphate buffer (pH = 7.4), HCl solution (pH = 2.0), NaOH solution (pH = 9.0) were adopted as media. […] Solutions were kept at 37 °C and monitored for 24 h.
A 0.01 M hydrochloric acid buffer (pH 2), as a non-enzymatic simulated gastric fluid (SGF), a 0.01 M phosphate buffer (pH 7.4) as non-enzymatic simulated intestinal fluid (SIF), and a 0.1 mM sodium hydroxide solution (pH 10) were used in this study. The reactions were initiated by adding 0.1 ml of compound stock solution (1 mg/mL in DMSO) to 1.9 ml aqueous buffer solution, in screw-capped vials at 37 ± 0.5 °C. Samples (5 µL) were withdrawn at appropriate intervals, i.e. after 5 min, 1 h, 2 h, 3 h, 4 h, 6 h, 8 h, and then after 24 h incubation time and analysed by HPLC.

[4] = test system: MCF-7 breast cancer cell line; assay: Cell metabolic activity (MTT assay); assay type: cell-based; conditions: Homo sapiens, MCF7; MCF-7, 24 h exposure; read-out: IC50 cell metabolic activity (MTT)
Method: (§1) Human breast cancer MCF-7 (HTB-22™) cells were purchased from ATCC® and maintained in Dulbecco’s Modified Eagle Medium (DMEM) high glucose supplemented with 10% of foetal bovine serum (FBS) and 1% of penicillin/streptomycin (all from Gibco-Thermofisher Scientific, MD, USA) at 37 °C and 5% CO2.
Cell metabolic activity of MCF-7 human breast cancer cells was assessed by MTT (3–(4,5-dimethylthiazol-2-yl)-2,5-diphenyltetrazolium bromide) test (Sigma Aldrich, Milan, Italy). Cells were seeded (0.1 × 10^4/well) in a 96-well tissue culture-treated plate (Falcon®, Corning Incorporated, NY, USA) and let them adhere for 24 h. Next, the cell monolayer was incubated in the presence of loading concentrations of compounds 2, 5 and 6 (0–400 µM) diluted in DMSO (final concentration 0.2%) for 24, 48 and 72 h. After the exposure time, cells were incubated with 100 μL/well of MTT (5 mg/mL) 1:10 with fresh growth medium (final concentration 0.5 mg/mL) for 4 h at 37 °C and 5% CO2. Finally, the MTT solution was removed and replaced with 100 µL/well of DMSO. Cells were incubated for an additional 20 min at 37 °C and 5% CO2 and afterward gently swirled for 10 min at room temperature. The optical density was measured at 540 nm by means of a spectrophotometer (Multiskan GO, Thermo Scientific, Monza, Italy). Results were expressed as the percentage of cells in the presence of vehicle (DMSO) set as 100% and each experiment was performed in triplicate (n = 3). Concentration-response curves and IC50 were fitted and calculated with the GraphPad Prism 5.0 (GraphPad Software, San Diego, CA, USA)[27].

[5] = test system: MCF-7 cell line; assay: Cytotoxicity test (lactate dehydrogenase release); assay type: cell-based, human; conditions: MCF-7, 24 h, 10 µM (lowest concentration tested); DMSO control set as 1
Method: as §1
After 24 h, cell supernatants were collected from the MTT plate, centrifuged at 450 × g for 4 min and stored on ice. To quantify the cytotoxicity of loading concentrations of compounds 2, 5 and 6 (0–400 µM), the CytoTox 96® Non-Radioactive Cytotoxicity Assay (Promega Corporation, WI, USA) was performed. The CytoTox 96® Assay quantitatively measures lactate dehydrogenase (LDH), a stable cytosolic enzyme released upon cell lysis. The absorbance signal resulting from the conversion of a tetrazolium salt (iodonitrotetrazolium violet; INT) into a red formazan product was measured at 490 and 690 nm (background) with a spectrophotometer (Multiskan GO, Thermo Scientific, Monza, Italy). The results were normalised on MTT absorbances and expressed as fold increases on the LDH released by cultures in the presence of vehicle (DMSO) set as 1.

[6] = test system: C. albicans ATCC 90028; assay: Antifungal broth microdilution (EUCAST), standard strain; assay type: cell-based; conditions: Candida albicans, ATCC90028; C. albicans ATCC 90028; 24 h, ≥50% growth inhibition; read-out: MIC
Method: (§2) The antifungal activity of the most representative compounds was evaluated versus one ATCC 90028 strain and 15 clinical isolates belonging to the most clinically relevant Candida spp. (C. albicans, C. tropicalis, and C. glabrata). All strains were stored at −80 °C in Sabouraud Broth (Oxoid LTD, Basingstoke, Hampshire, England) with 20% of glycerine until their use. The strains were grown on Sabouraud CAF agar (Thermo Fisher Scientific Waltham, MA, USA), and incubated for 24–48 h at 37 °C. […] The in vitro antifungal activity was determined by broth microdilution method with RPMI 1640 (Sigma-Aldrich. ST Louis, MO, USA) as recommended by EUCAST, and the E. Def 7.3, method document (http://www.eucast.org). […] Each plate included the following controls: (i) inoculum suspension (growth control), (ii) drug-free medium, (iii) medium with drug, and (iv) distilled water (used for the inoculum preparation). Fluconazole was used as a reference drug according to the EUCAST guidelines. The plates were incubated for 24 h at 37 °C, and then read with a plate reader at 530 nm. […] Three independent experiments were performed in triplicate.

[7] = test system: C. albicans clinical isolates; assay: Antifungal broth microdilution (EUCAST), C. albicans clinical isolates; assay type: cell-based; conditions: Candida albicans
Method: as §2

[8] = test system: C. tropicalis clinical isolates; assay: Antifungal broth microdilution (EUCAST), C. tropicalis clinical isolates; assay type: cell-based, Candida tropicalis
Method: as §2

[9] = test system: C. glabrata clinical isolates; assay: Antifungal broth microdilution (EUCAST), C. glabrata clinical isolates; assay type: cell-based, Candida glabrata
Method: as §2

[10] = target: aromatase; conditions: Figure 1; cited from earlier work
[11] = target: hCYP19A1; parameters: method as in PMID 26481362; conditions: cocrystallized ligand of hCYP19A1; cited from earlier work
[12] = target: iNOS; parameters: method as in PMID 26481362; conditions: cocrystallized ligand of iNOS; cited from earlier work

**Q.** What does the source list for `O=C(OC(Cc1ccccc1)Cn1ccnc1)c1ccccc1` (stereo not drawn) [Compound 2, 1-benzyl-2-(1H-imidazol-1-yl)ethyl benzoate]?
**A.** inhibition at 1 µM [1]: 77 ± 1.8%; inhibition at 1 µM [2]: 100 ± 2.6%; Chemical stability in acidic medium ([3]; HCl solution pH = 2.0, 37 °C, monitored for 24 h): stable; Chemical stability in neutral medium ([3]; Phosphate buffer pH = 7.4, 37 °C, monitored for 24 h): stable; half-life at 0.05 mg/mL ([3]; aqueous NaOH solution, NaOH solution pH = 9.0, 37 °C, read-out: half-life of hydrolysis in basic medium): 48 min; IC50 [4]: > 200 µM; LDH released, fold increase vs control [5]: 1.44 folds; MIC [6]: 16 µg/mL (≈ 52.2 µM); MIC ([7]; C. albicans 78/5): 16 µg/mL (≈ 52.2 µM); MIC ([7]; C. albicans 231/5): 16 µg/mL (≈ 52.2 µM); MIC ([7]; C. albicans 308/4): 64 µg/mL (≈ 209 µM); MIC ([7]; C. albicans 510/5): 16 µg/mL (≈ 52.2 µM); MIC ([7]; C. albicans 688/5): 32 µg/mL (≈ 104 µM); MIC ([7]; C. albicans 712/5): 32 µg/mL (≈ 104 µM); MIC ([7]; C. albicans 887/5): 16 µg/mL (≈ 52.2 µM); MIC ([7]; C. albicans 943/5): 16 µg/mL (≈ 52.2 µM); MIC ([7]; C. albicans 1009/40): 16 µg/mL (≈ 52.2 µM); MIC ([7]; C. albicans SF1): 16 µg/mL (≈ 52.2 µM); MIC ([8]; C. tropicalis 295/5): 64 µg/mL (≈ 209 µM); MIC ([8]; Candida tropicalis, C. tropicalis 74/5, read-out: MIC): 64 µg/mL (≈ 209 µM); MIC ([9]; C. glabrata 311/5): >64 µg/mL; MIC ([9]; C. glabrata 495/5): >64 µg/mL; MIC ([9]; Nakaseomyces glabratus, C. glabrata 365/5, read-out: MIC): > 64 µg/mL; melting point: 68 to 69 °C

**Q.** Which IC50 [10] does the source give for `COc1ccc(S(=O)(=O)N2CCCC(Cn3ccnc3)C2)cc1Br` (stereo not drawn) [Compound 3o] here?
**A.** 6 nM

**Q.** With `C[C@]12CCC(=O)C=C1CC[C@@H]1[C@@H]2CC[C@]2(C)C(=O)CC[C@@H]12` [4-androstene-3,17-dione] as the compound, how does the Ki [11] read?
**A.** 20 nM

**Q.** Which Ki [12] does the source give for `CCSC(=N)N` [ethylisothiourea] here?
**A.** 5 nM
